Values of other authors as cited in publication PMC8240349 (Journal of Traditional and Complementary Medicine, 2021).

Test system: CCA
Conditions: cited from earlier work

SMILES: C=C1CCC[C@]2(C)CC[C@@H](C(C)(C)O)C[C@@H]12 [β-eudesmol]
- IC50, anti-CCA activity (bioassay-guided activity): 20 to 25 µg/mL

SMILES: CC1=CCC[C@H](C)[C@@]12CC[C@@H](C(C)(C)O)C2 [hinesol]
- activity (anti-CCA): weak activity
